Holding throughout (assay type): cell-based
The subject of one experiment is A549 cells. The experiment is described as follows: in vitro antiproliferation assay, A549 (lung). In outline:
(§1)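 Standard in vitro antiproliferation assays on tumour cell lines, including A549 and H1299 (both lung); IC50 values determined.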

Another experiment concerns H1299 cells. Kind of experiment: in vitro antiproliferation assay, H1299 (lung). In outline: as §1
Another experiment concerns ACHN. The experiment is described as follows: in vitro antiproliferation assay, ACHN (kidney/p53 wt). The protocol: (§2) The IC50 values of various compounds against a various different tumor cell lines were determined using standard in vitro antiproliferation assays. The tumor cell lines tested were as follows: A549 (lung); H1299 (lung), ACHN (kidney/p53 wt), CAKI (renal cell carcinoma), NCI-H460 (lung); HCT116 (colon/p53w0; HELA (cervix/p53 wt), HUH7 (liver/p53 wt), HUVEC (primary endothelial), LNCAP (prostate), HT-29 (colon); MCF-7 (breast); MCF-7 (breast/ER positive), MDA MB435S (breast); MDA MB231 (breast/ER negative), DU145 (prostate); BxPC-3 (pancreatic); SKOV-3 (ovarian); HepG2 (hepatic), NDHF primary normal human dermal fibroblast), SKMEL28 (breast/p53mut), SKMEL5 (breast/p53 wt), U20S (bone) and PC3 (prostate). […] A blank indicates the specified compound was not tested against the specified cell line.
(§3) Many of the compounds were tested against other cell lines. Their activity is reported in TABLE 15, below, where +”, “−”, “−/+” or “+/−” values are as described for TABLES 1-14. Where the cell line includes a value in a parenthetical, the value indicates the seeding density at which the assay was performed

The test system of the next experiment is CAKI. The experiment is described as follows: in vitro antiproliferation assay, CAKI (renal cell carcinoma). The method, then: as §2, §3
Another experiment has as its system HCT116. Kind of experiment: in vitro antiproliferation assay, HCT116 (colon). In outline: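 Growth inhibition is measured in a standard in vitro antiproliferation assay and expressed as IC50.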
A further experiment has as its system SKMEL28. The experiment is described as follows: in vitro antiproliferation assay, SKMEL28 (breast/p53mut). The method, then: as §2, §3
Another experiment deals with SKMEL5. The experiment is described as follows: in vitro antiproliferation assay, SKMEL5. The protocol: as §2, §3
In a further experiment the test system is HELA. Kind of experiment: in vitro antiproliferation assay, HELA (cervix/p53 wt). The protocol: as §2, §3
A further experiment relates to MCF-7. The experiment is described as follows: in vitro antiproliferation assay, MCF-7 (breast/ER positive). The protocol: as §2, §3
A further experiment deals with MDA MB231. The experiment is described as follows: in vitro antiproliferation assay, MDA MB231 (breast/ER negative). The method, then: as §2, §3
A further experiment relates to HUH7. The experiment is described as follows: in vitro antiproliferation assay, HUH7 (liver/p53 wt). The method, then:
as §2, §3

A further experiment deals with PC3. The experiment is described as follows: in vitro antiproliferation assay, PC3 (prostate). The method, then: as §2, §3
A further experiment deals with HUVEC. The experiment is described as follows: in vitro antiproliferation assay, HUVEC (primary endothelial). The protocol: as §2, §3
For the next experiment, the system named is LNCAP. Kind of experiment: in vitro antiproliferation assay, LNCAP (prostate). The method, then: as §2, §3
For another experiment, the system named is NDHF. Kind of experiment: in vitro antiproliferation assay, NDHF (primary normal human dermal fibroblast). The protocol: as §2, §3
In another experiment the test system is U20S. The experiment is described as follows: in vitro antiproliferation assay, U20S (bone). The protocol:
as §2, §3

The mark [1] stands for this setting: IC50 class against A549 (lung) tumor cells.
Setting [2] is: IC50 class against H1299 (lung) tumor cells.
Setting [3] is: HCT116 (colon), read-out: HCT116.
The mark [4] stands for this setting: MCF7, seeding density 2K, read-out: MCF7(2K).
[5] abbreviates: MCF7, seeding density 4K, read-out: MCF7(4K).
Where [6] appears, read: MDA-MB-231, seeding density 2K, read-out: MDA-MB-231(2K).
Setting [7] is: MDA-MB-231, seeding density 4K, read-out: MDA-MB-231(4K).
The mark [8] stands for this setting: Table 5, in vitro antiproliferation, A549 (lung) cells.
The mark [9] stands for this setting: Table 5, in vitro antiproliferation, H1299 (lung) cells.
Where [10] appears, read: Table 7, in vitro antiproliferation, A549 (lung) cells.
[11] abbreviates: Table 7, in vitro antiproliferation, H1299 (lung) cells.
Setting [12] is: Table 7, in vitro antiproliferation, colon cells, read-out: HTC116.
Setting [13] is: A549 (lung) cells, in vitro antiproliferation.
The mark [14] stands for this setting: H1299 (lung) cells, in vitro antiproliferation.

Each structure is given as a SMILES string. Like-named read-outs stand apart in the source and are kept apart here. A value given as a limit tells only on which side of the number the result lay.

`Fc1cnc(Nc2ccc(N3CCOCC3)cc2)nc1NC1CC1` [compound 101]: the IC50 in the experiment with A549 cells (setting [1]), in the experiment on H1299 cells (setting [2]), in the experiment on ACHN, with CAKI, in the experiment on HCT116 (setting [3]) and with SKMEL28 was ≤ 20 µM each time. In addition, in the experiment on SKMEL5, the IC50 was ≤ 20 µM.
Regarding `O=C(COc1cccc(Nc2ncc(F)c(NC3CC3)n2)c1)NC1CC1` [compound 102], the IC50 in the experiment on A549 cells (setting [1]), with H1299 cells (setting [2]), in the experiment on ACHN, in the experiment with CAKI, in the experiment with HCT116 (setting [3]) and in the experiment with SKMEL28 was ≤ 20 µM throughout. Moreover, in the experiment with SKMEL5, the IC50 is ≤ 20 µM.
For `O=C(COc1cccc(Nc2ncc(F)c(NC3CC3)n2)c1)NC1CCC1` [compound 103], the IC50 in the experiment on A549 cells (setting [1]), in the experiment with H1299 cells (setting [2]), in the experiment with ACHN, in the experiment on CAKI, with HCT116 (setting [3]) and with SKMEL28 was ≤ 20 µM in each case. Also, the IC50 in the experiment on SKMEL5 was ≤ 20 µM.
Take `CNC(=O)COc1cccc(Nc2ncc(F)c(NC3CC3)n2)c1` [compound 106]: the IC50 in the experiment with A549 cells (setting [1]), with H1299 cells (setting [2]), in the experiment on ACHN, with CAKI, in the experiment on HCT116 (setting [3]) and in the experiment on SKMEL28 was ≤ 20 µM in each case. For the same compound, the IC50 with SKMEL5 is ≤ 20 µM.
For `CN1CCN(c2ccc(Nc3ncc(F)c(N(C)C4CCC4)n3)cc2)CC1` [compound 125], the IC50 in the experiment on A549 cells (setting [1]), in the experiment with H1299 cells (setting [2]), in the experiment on HCT116 (setting [3]), in the experiment on HELA, with MCF-7 (setting [4]) and in the experiment with MCF-7 (setting [5]) was ≤ 20 µM throughout. For the same compound, the IC50 with MDA MB231 (setting [6]) and in the experiment on MDA MB231 (setting [7]) was ≤ 20 µM each time.
As to `CNC(=O)COc1cccc(Nc2ncc(F)c(Nc3ccc4c(c3)NC(=O)C(C)(C)O4)n2)c1` [compound 355], the IC50 in the experiment with HCT116 (setting [3]) is > 20 µM; with HUH7, ≤ 20 µM; with PC3, ≤ 20 µM.
As to `COc1c(C)cc(Nc2ncc(F)c(Nc3ccc4c(c3)NC(=O)C(C)(C)O4)n2)cc1Cl` [compound 359], the IC50 with HCT116 (setting [3]) is > 20 µM; with HUH7, ≤ 20 µM.
Turning to `COc1cc(Nc2ncc(F)c(Nc3ccc4c(c3)OCCO4)n2)cc(OC)c1` [compound 512], the IC50 is ≤ 20 µM in the experiment with A549 cells (setting [8]); ≤ 20 µM in the experiment on H1299 cells (setting [9]); ≤ 20 µM in the experiment on ACHN; > 20 µM in the experiment with HCT116 (setting [3]); ≤ 20 µM in the experiment on HELA; ≤ 20 µM with HUH7. In addition, the IC50 with HUVEC, in the experiment on LNCAP, with NDHF, in the experiment on SKMEL28, in the experiment with SKMEL5 and in the experiment with U20S was ≤ 20 µM in each case. In addition, in the experiment on PC3, the IC50 was > 20 µM.
For the compound `Cc1cc(Nc2ncc(F)c(Nc3ccc4c(c3)OCCO4)n2)cc(C(F)(F)F)c1` [compound 523], the IC50 with A549 cells (setting [8]) is > 20 µM; with H1299 cells (setting [9]) it was ≤ 20 µM; in the experiment with ACHN, ≤ 20 µM; in the experiment on HCT116 (setting [3]), > 20 µM; in the experiment with HELA, ≤ 20 µM; in the experiment with HUH7, ≤ 20 µM. Also, the IC50 with HUVEC, in the experiment with LNCAP, in the experiment with NDHF, in the experiment on SKMEL28, in the experiment on SKMEL5 and in the experiment on U20S was ≤ 20 µM in each case.
`CCOC(=O)c1cc2cccc(Nc3ncc(F)c(Nc4cc(C)cc(C)c4)n3)c2[nH]1` [compound 646]: the IC50 in the experiment on A549 cells (setting [10]) is ≤ 20 µM; in the experiment with H1299 cells (setting [11]), ≤ 20 µM; with ACHN, ≤ 20 µM; in the experiment on CAKI it was ≤ 20 µM; in the experiment with HCT116 (setting [3]), > 20 µM; with HCT116 (setting [12]), ≤ 20 µM. The IC50 in the experiment on HELA, in the experiment on HUH7, in the experiment on HUVEC, with LNCAP, in the experiment with NDHF and with SKMEL28 was ≤ 20 µM each time. Moreover, the IC50 with SKMEL5 and with U20S was ≤ 20 µM throughout.
With `CNC(=O)c1cc2cccc(Nc3ncc(F)c(Nc4ccc5c(c4)OCCO5)n3)c2[nH]1` [compound 649], the IC50 with A549 cells (setting [10]) was ≤ 20 µM; in the experiment with HCT116 (setting [3]), > 20 µM; in the experiment on HCT116 (setting [12]) it was ≤ 20 µM; with HELA it was ≤ 20 µM; in the experiment on HUH7, ≤ 20 µM; in the experiment with HUVEC it was ≤ 20 µM. The IC50 with LNCAP, in the experiment on NDHF and in the experiment with U20S was ≤ 20 µM each time.
As for `CNC(=O)c1cc2cccc(Nc3ncc(F)c(Nc4cc(OC)cc(OC)c4)n3)c2[nH]1` [compound 654], the IC50 with A549 cells (setting [10]), with H1299 cells (setting [11]), with ACHN, with CAKI, with SKMEL28 and in the experiment with SKMEL5 was ≤ 20 µM throughout.
Consider `COc1cc(Nc2ncc(F)c(Nc3ccc(Cl)c(Cl)c3)n2)cc(OC)c1` [compound 835], for which the IC50 in the experiment with A549 cells (setting [13]), in the experiment on H1299 cells (setting [14]), with HCT116 (setting [3]), in the experiment with HUVEC and in the experiment on U20S was ≤ 20 µM each time.
`COc1cc(Nc2nc(Nc3cc(C)cc(C)c3)ncc2F)cc(OC)c1` [compound 846]: the IC50 with A549 cells (setting [13]), in the experiment on H1299 cells (setting [14]), in the experiment on ACHN, in the experiment with CAKI, in the experiment with HCT116 (setting [3]) and with HUVEC was ≤ 20 µM throughout. The IC50 in the experiment with SKMEL28 and in the experiment with SKMEL5 was ≤ 20 µM throughout.
With `COc1cc(OC)cc(N(C)c2nc(Nc3cc(C)cc(C)c3)ncc2F)c1` [compound 851], the IC50 with A549 cells (setting [13]), in the experiment on H1299 cells (setting [14]), with HCT116 (setting [3]), in the experiment with HELA and with U20S was ≤ 20 µM throughout.
As to `COc1ccc(Nc2nc(Nc3cccc(-c4ncco4)c3)ncc2F)cc1OC` [compound 858], the IC50 with A549 cells (setting [13]), in the experiment on H1299 cells (setting [14]), in the experiment on ACHN, in the experiment on HCT116 (setting [3]), with HELA and in the experiment with MCF-7 (setting [4]) was ≤ 20 µM in each case. Moreover, the IC50 in the experiment on MCF-7 (setting [5]), in the experiment on MDA MB231 (setting [6]), in the experiment with MDA MB231 (setting [7]), with SKMEL28, with SKMEL5 and in the experiment on U20S was ≤ 20 µM in each case.
Consider `COc1ccc(N(C)c2nc(Nc3cccc(-c4ncco4)c3)ncc2F)cc1OC` [compound 868], for which the IC50 with A549 cells (setting [13]), in the experiment on H1299 cells (setting [14]), in the experiment on ACHN, in the experiment with CAKI, in the experiment with HCT116 (setting [3]) and with SKMEL28 was ≤ 20 µM each time. In addition, the IC50 with SKMEL5 and with U20S was ≤ 20 µM throughout.
As to `Cc1cc(Nc2ncc(F)c(Nc3cc(C)c(O)c(Cl)c3)n2)cc(Cl)c1O` [compound 942], the IC50 in the experiment with A549 cells (A549 (lung) cells, antiproliferation) is ≤ 20 µM; with H1299 cells (H1299 (lung) cells, antiproliferation) it was ≤ 20 µM; in the experiment on ACHN, ≤ 20 µM; with CAKI, ≤ 20 µM; with HCT116 (setting [3]), ≤ 20 µM; with HELA, ≤ 20 µM. Further, the IC50 in the experiment with HUH7, with HUVEC, in the experiment on LNCAP, with NDHF, in the experiment with SKMEL28 and in the experiment on SKMEL5 was ≤ 20 µM in each case. Moreover, the IC50 in the experiment with U20S is ≤ 20 µM.

These data come from patent US8809341B2, “2,4-pyrimidinediamine compounds and uses as anti-proliferative agents” (Rigel Pharmaceuticals, Inc., priority 2003, dated 2014).
